Experimental findings from ChEMBL document CHEMBL5614424, “Natural Product-Inspired Discovery of Naphthoquinone-Furo-Piperidine Derivatives as Novel STAT3 Inhibitors for the Treatment of Triple-Negative Breast Cancer” (J Med Chem, 2024) are described below.

Activity calls are given as the source filed them. The calls are words filed in the database; no cut-off is given here.

For one data set, the system named is MDA-MB-231. In words: Antiproliferative activity against human MDA-MB-231 cells assessed as cell viability incubated for 48 hrs measured after additional incubation with MTT. Format: functional, cell-based. To be noted: MDA-MB-231, 48 h.
The term IC50 denotes the concentration needed to halve the response being measured. Regarding `CN(C)C(=O)N1CCc2c(oc3c2C(=O)C(=O)c2ccccc2-3)C1`, the IC50 turned out to be 4 µM.
Same read-out and setting: the figure for `O=C1C(=O)c2c(oc3c2CCN(C(=O)c2ccc(C(F)(F)F)cc2)C3)-c2ccccc21` is 14.7 µM.
The same measure, in the same setting: the figure for `CN(C)c1ccc(C(=O)N2CCc3c(oc4c3C(=O)C(=O)c3ccccc3-4)C2)cc1` is above 20 µM; for `COC(=O)CCN1CCc2c(oc3c2C(=O)C(=O)c2ccccc2-3)C1` it is 5.72 µM; for `CC(=O)c1cc2c(o1)C(=O)C(=O)c1ccccc1-2` it is 1.43 µM.
Same read-out and setting: for `O=C1C(=O)c2c(oc3c2CCN(CCCCO)C3)-c2ccccc21` the value was 6.41 µM; for `O=C1C(=O)c2c(oc3c2CCNC3)-c2ccccc21`, 7.11 µM.
`CNC(=O)[C@H](CC(C)C)N1CCc2c(oc3c2C(=O)C(=O)c2ccccc2-3)C1`: the IC50 was found to be 7.99 µM.
`O=C1C(=O)c2c(oc3c2CCN(C(=O)c2cccnc2)C3)-c2ccccc21`: the IC50 is 5.86 µM.
The same measure, in the same setting: the figure for `COC(=O)CC[C@@H](C(=O)OC)N1CCc2c(oc3c2C(=O)C(=O)c2ccccc2-3)C1` is 12.7 µM; for `COC(=O)CCCN1CCc2c(oc3c2C(=O)C(=O)c2ccccc2-3)C1` it is 6.89 µM.
Same read-out and setting: the figure for `CNC(=O)CN1CCc2c(oc3c2C(=O)C(=O)c2ccccc2-3)C1` is 6.51 µM; for `CNC(=O)CCN1CCc2c(oc3c2C(=O)C(=O)c2ccccc2-3)C1` it is 4.5 µM.
Still for that read-out and setting: for `C[C@@H](CO)N1CCc2c(oc3c2C(=O)C(=O)c2ccccc2-3)C1` the value was 3.41 µM.
On to `COC(=O)[C@H](C)N1CCc2c(oc3c2C(=O)C(=O)c2ccccc2-3)C1`, for which the IC50 was 3.14 µM.
Same read-out and setting: for `COC(=O)[C@H](Cc1ccccc1)N1CCc2c(oc3c2C(=O)C(=O)c2ccccc2-3)C1` the value was 8.26 µM; for `O=C1C(=O)c2c(oc3c2CCN([C@H](CO)Cc2ccc(O)cc2)C3)-c2ccccc21`, 13.6 µM; for `O=C1C(=O)c2c(oc3c2CCN(C(=O)N2CCOCC2)C3)-c2ccccc21`, 6.43 µM.
Same read-out and setting: the figure for `COc1ccc(C(=O)N2CCc3c(oc4c3C(=O)C(=O)c3ccccc3-4)C2)cc1OC` is 4.59 µM; for `O=C1C(=O)c2c(oc3c2CCN([C@H](CO)Cc2ccccc2)C3)-c2ccccc21` it is 9.97 µM.

The next data set relates to MDA-MB-468. The experiment in a line: Antiproliferative activity against human MDA-MB-468 cells assessed as cell viability incubated for 48 hrs measured after additional incubation with MTT. It counts as functional, cell-based. To be noted: MDA-MB-468, 48 h.
As for `CN(C)C(=O)N1CCc2c(oc3c2C(=O)C(=O)c2ccccc2-3)C1`, the IC50 was found to be 2.35 µM.
Still for that read-out and setting: for `O=C1C(=O)c2c(oc3c2CCN(C(=O)c2ccc(C(F)(F)F)cc2)C3)-c2ccccc21` the value was 14.7 µM; for `CN(C)c1ccc(C(=O)N2CCc3c(oc4c3C(=O)C(=O)c3ccccc3-4)C2)cc1`, above 20 µM; for `COC(=O)CCN1CCc2c(oc3c2C(=O)C(=O)c2ccccc2-3)C1`, 4.13 µM.
Still for that read-out and setting: the figure for `CC(=O)c1cc2c(o1)C(=O)C(=O)c1ccccc1-2` is 2.51 µM; for `O=C1C(=O)c2c(oc3c2CCN(CCCCO)C3)-c2ccccc21` it is 9.48 µM.
`O=C1C(=O)c2c(oc3c2CCNC3)-c2ccccc21`: the IC50 is 9.23 µM.
On the same count and under the same terms, the figure for `CNC(=O)[C@H](CC(C)C)N1CCc2c(oc3c2C(=O)C(=O)c2ccccc2-3)C1` is 7.36 µM; for `O=C1C(=O)c2c(oc3c2CCN(C(=O)c2cccnc2)C3)-c2ccccc21` it is 5.89 µM; for `COC(=O)CC[C@@H](C(=O)OC)N1CCc2c(oc3c2C(=O)C(=O)c2ccccc2-3)C1` it is 12.2 µM.
With `COC(=O)CCCN1CCc2c(oc3c2C(=O)C(=O)c2ccccc2-3)C1`, the IC50 turned out to be 9.12 µM.
On the same count and under the same terms, for `CNC(=O)CN1CCc2c(oc3c2C(=O)C(=O)c2ccccc2-3)C1` the value was 4.78 µM; for `CNC(=O)CCN1CCc2c(oc3c2C(=O)C(=O)c2ccccc2-3)C1`, 3.6 µM.
With `C[C@@H](CO)N1CCc2c(oc3c2C(=O)C(=O)c2ccccc2-3)C1`, the IC50 came out at 5.42 µM.
For `COC(=O)[C@H](C)N1CCc2c(oc3c2C(=O)C(=O)c2ccccc2-3)C1`, the IC50 was determined as 2.36 µM.
The same measure, in the same setting: the figure for `COC(=O)[C@H](Cc1ccccc1)N1CCc2c(oc3c2C(=O)C(=O)c2ccccc2-3)C1` is 11.4 µM; for `O=C1C(=O)c2c(oc3c2CCN([C@H](CO)Cc2ccc(O)cc2)C3)-c2ccccc21` it is 13 µM; for `O=C1C(=O)c2c(oc3c2CCN(C(=O)N2CCOCC2)C3)-c2ccccc21` it is 5.41 µM.
Regarding `COc1ccc(C(=O)N2CCc3c(oc4c3C(=O)C(=O)c3ccccc3-4)C2)cc1OC`, the IC50 came to 5.82 µM.
In the case of `O=C1C(=O)c2c(oc3c2CCN([C@H](CO)Cc2ccccc2)C3)-c2ccccc21`, the IC50 was above 10 µM.

Test system in the next data set: not listed separately
The experiment in a line: Antiproliferative activity against human MCF-10A cells assessed as cell viability incubated for 48 hrs measured after additional incubation with MTT. It counts as toxicity, cell-based.
Conditions: not given
For the compound `CN(C)C(=O)N1CCc2c(oc3c2C(=O)C(=O)c2ccccc2-3)C1`, the IC50 at 48 h is above 20 µM.
`CN(C)c1ccc(C(=O)N2CCc3c(oc4c3C(=O)C(=O)c3ccccc3-4)C2)cc1`: the IC50 at 48 h is above 20 µM.
On the same count and under the same terms, the figure for `COC(=O)CCN1CCc2c(oc3c2C(=O)C(=O)c2ccccc2-3)C1` is 4.55 µM; for `CC(=O)c1cc2c(o1)C(=O)C(=O)c1ccccc1-2` it is 6.23 µM.
Still for that read-out and setting: for `O=C1C(=O)c2c(oc3c2CCN(C(=O)c2cccnc2)C3)-c2ccccc21` the value was 9.35 µM.
Still for that read-out and setting: the figure for `CNC(=O)CCN1CCc2c(oc3c2C(=O)C(=O)c2ccccc2-3)C1` is 11 µM; for `C[C@@H](CO)N1CCc2c(oc3c2C(=O)C(=O)c2ccccc2-3)C1` it is 7.98 µM.
Consider `COC(=O)[C@H](C)N1CCc2c(oc3c2C(=O)C(=O)c2ccccc2-3)C1`, for which the IC50 at 48 h stood at 18.2 µM.
Turning to `O=C1C(=O)c2c(oc3c2CCN(C(=O)N2CCOCC2)C3)-c2ccccc21`, the IC50 at 48 h amounted to 16.8 µM.
The same measure, in the same setting: for `COc1ccc(C(=O)N2CCc3c(oc4c3C(=O)C(=O)c3ccccc3-4)C2)cc1OC` the value was 7.96 µM.

The subject of a further data set is L02. In words: Antiproliferative activity against human L02 cells assessed as cell viability incubated for 48 hrs measured after additional incubation with MTT. To be noted: L02, 48 h. It counts as functional, cell-based.
With `CN(C)C(=O)N1CCc2c(oc3c2C(=O)C(=O)c2ccccc2-3)C1`, the IC50 was above 20 µM.
Still for that read-out and setting: for `CN(C)c1ccc(C(=O)N2CCc3c(oc4c3C(=O)C(=O)c3ccccc3-4)C2)cc1` the value was above 20 µM; for `COC(=O)CCN1CCc2c(oc3c2C(=O)C(=O)c2ccccc2-3)C1`, 8.51 µM.
As for `CC(=O)c1cc2c(o1)C(=O)C(=O)c1ccccc1-2`, the IC50 amounted to 7.25 µM.
Turning to `O=C1C(=O)c2c(oc3c2CCN(C(=O)c2cccnc2)C3)-c2ccccc21`, the IC50 was 13.3 µM.
As for `CNC(=O)CCN1CCc2c(oc3c2C(=O)C(=O)c2ccccc2-3)C1`, the IC50 came to 12.5 µM.
As for `C[C@@H](CO)N1CCc2c(oc3c2C(=O)C(=O)c2ccccc2-3)C1`, the IC50 was 7.87 µM.
Same read-out and setting: the figure for `O=C1C(=O)c2c(oc3c2CCN(C(=O)N2CCOCC2)C3)-c2ccccc21` is above 20 µM.
On to `COc1ccc(C(=O)N2CCc3c(oc4c3C(=O)C(=O)c3ccccc3-4)C2)cc1OC`, for which the IC50 is 7.43 µM.

The next data set deals with Signal transducer and activator of transcription 3 (Homo sapiens) (UniProt P40763). In words: Suppression of STAT3 activation in human MDA-MB-231 cell assessed as decrease in phosphorylated STAT3 (p-STAT3 Tyr705) level at 3 uM measured after 24 hrs by Western blot analysis. It counts as cell-based.
Chain of Signal transducer and activator of transcription 3 (Homo sapiens) (P40763 whole entry): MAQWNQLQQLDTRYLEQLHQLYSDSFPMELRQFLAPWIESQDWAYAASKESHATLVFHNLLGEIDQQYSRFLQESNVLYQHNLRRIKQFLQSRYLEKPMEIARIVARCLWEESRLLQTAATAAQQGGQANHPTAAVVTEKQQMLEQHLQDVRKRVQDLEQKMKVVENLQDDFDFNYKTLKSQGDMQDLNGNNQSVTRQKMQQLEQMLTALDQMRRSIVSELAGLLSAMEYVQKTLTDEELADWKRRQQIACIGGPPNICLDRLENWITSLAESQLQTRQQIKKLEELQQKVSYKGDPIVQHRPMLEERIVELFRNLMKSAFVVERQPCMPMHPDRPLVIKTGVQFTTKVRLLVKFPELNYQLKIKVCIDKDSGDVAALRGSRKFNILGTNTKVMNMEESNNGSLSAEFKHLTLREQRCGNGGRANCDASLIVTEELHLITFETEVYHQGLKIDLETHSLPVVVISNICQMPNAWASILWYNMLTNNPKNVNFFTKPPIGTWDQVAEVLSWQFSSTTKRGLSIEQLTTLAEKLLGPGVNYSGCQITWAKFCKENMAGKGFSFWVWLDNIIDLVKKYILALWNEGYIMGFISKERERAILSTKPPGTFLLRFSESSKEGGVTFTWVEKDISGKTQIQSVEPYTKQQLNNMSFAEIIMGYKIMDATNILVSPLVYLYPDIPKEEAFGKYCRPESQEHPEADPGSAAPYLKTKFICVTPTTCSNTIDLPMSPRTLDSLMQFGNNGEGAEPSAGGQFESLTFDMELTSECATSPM
Conditions: not given
(In general: In western blotting, separated proteins are transferred to a membrane and probed.)
For the compound `CN(C)C(=O)N1CCc2c(oc3c2C(=O)C(=O)c2ccccc2-3)C1`, the inhibition entry is “Active”.
Same read-out and setting: for `CNC(=O)CCN1CCc2c(oc3c2C(=O)C(=O)c2ccccc2-3)C1` the value was “Active”.
For the compound `C[C@@H](CO)N1CCc2c(oc3c2C(=O)C(=O)c2ccccc2-3)C1`, the inhibition result was “Active”.
The same measure, in the same setting: the entry for `COC(=O)[C@H](C)N1CCc2c(oc3c2C(=O)C(=O)c2ccccc2-3)C1` is “inactive”.

Another data set has the same target. In words: Suppression of STAT3 activation in human MDA-MB-468 cell assessed as decrease in phosphorylated STAT3 (p-STAT3 Tyr705) level at 3 uM measured after 24 hrs by Western blot analysis. It counts as cell-based.
Conditions: not given
With `CN(C)C(=O)N1CCc2c(oc3c2C(=O)C(=O)c2ccccc2-3)C1`, the inhibition result is “Active”.
Still for that read-out and setting: for `CNC(=O)CCN1CCc2c(oc3c2C(=O)C(=O)c2ccccc2-3)C1` the value was “Active”; for `C[C@@H](CO)N1CCc2c(oc3c2C(=O)C(=O)c2ccccc2-3)C1`, “Active”.
As for `COC(=O)[C@H](C)N1CCc2c(oc3c2C(=O)C(=O)c2ccccc2-3)C1`, the inhibition result is “inactive”.

A further data set concerns MDA-MB-231. In words: Decrease in STAT3 level in human MDA-MB-231 cell at 3 uM measured after 24 hrs by Western blot analysis. Format: functional, cell-based.
Conditions: not given
For `CN(C)C(=O)N1CCc2c(oc3c2C(=O)C(=O)c2ccccc2-3)C1`, the outcome was Active.
On the same count and under the same terms, the entry for `CNC(=O)CCN1CCc2c(oc3c2C(=O)C(=O)c2ccccc2-3)C1` is “Active”.

A further data set concerns MDA-MB-468. In words: Decrease in STAT3 level in human MDA-MB-468 cell at 3 uM measured after 24 hrs by Western blot analysis. Format: functional, cell-based.
Conditions: not given
Turning to `CN(C)C(=O)N1CCc2c(oc3c2C(=O)C(=O)c2ccccc2-3)C1`, the result was Active.
The same measure, in the same setting: for `CNC(=O)CCN1CCc2c(oc3c2C(=O)C(=O)c2ccccc2-3)C1` the value was “Active”.
